Measured values: patent publication US20120264735A1 (priority 2009, published 2012)

Target: T1, c-Met kinase (recombinant c-Met) (Homo sapiens, UniProt P08581)
T1 construct: 0.27 nM recombinant c-Met
Test: In vitro kinase assay I (homogeneous time-resolved fluorescence tyrosine kinase assay)
Type: biochemical
In short: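 Biotinylated peptide (0.5 μM) phosphorylated by 0.2 nM recombinant c-Met with 50 μM MgATP, 60 min at room temperature, pH 7.4, 5% DMSO. EDTA stop; HTRF read with Eu-anti-phosphotyrosine antibody and streptavidin-APC. IC50 from 4-parameter logistic fit.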

T1 sequence (P08581 25-1390): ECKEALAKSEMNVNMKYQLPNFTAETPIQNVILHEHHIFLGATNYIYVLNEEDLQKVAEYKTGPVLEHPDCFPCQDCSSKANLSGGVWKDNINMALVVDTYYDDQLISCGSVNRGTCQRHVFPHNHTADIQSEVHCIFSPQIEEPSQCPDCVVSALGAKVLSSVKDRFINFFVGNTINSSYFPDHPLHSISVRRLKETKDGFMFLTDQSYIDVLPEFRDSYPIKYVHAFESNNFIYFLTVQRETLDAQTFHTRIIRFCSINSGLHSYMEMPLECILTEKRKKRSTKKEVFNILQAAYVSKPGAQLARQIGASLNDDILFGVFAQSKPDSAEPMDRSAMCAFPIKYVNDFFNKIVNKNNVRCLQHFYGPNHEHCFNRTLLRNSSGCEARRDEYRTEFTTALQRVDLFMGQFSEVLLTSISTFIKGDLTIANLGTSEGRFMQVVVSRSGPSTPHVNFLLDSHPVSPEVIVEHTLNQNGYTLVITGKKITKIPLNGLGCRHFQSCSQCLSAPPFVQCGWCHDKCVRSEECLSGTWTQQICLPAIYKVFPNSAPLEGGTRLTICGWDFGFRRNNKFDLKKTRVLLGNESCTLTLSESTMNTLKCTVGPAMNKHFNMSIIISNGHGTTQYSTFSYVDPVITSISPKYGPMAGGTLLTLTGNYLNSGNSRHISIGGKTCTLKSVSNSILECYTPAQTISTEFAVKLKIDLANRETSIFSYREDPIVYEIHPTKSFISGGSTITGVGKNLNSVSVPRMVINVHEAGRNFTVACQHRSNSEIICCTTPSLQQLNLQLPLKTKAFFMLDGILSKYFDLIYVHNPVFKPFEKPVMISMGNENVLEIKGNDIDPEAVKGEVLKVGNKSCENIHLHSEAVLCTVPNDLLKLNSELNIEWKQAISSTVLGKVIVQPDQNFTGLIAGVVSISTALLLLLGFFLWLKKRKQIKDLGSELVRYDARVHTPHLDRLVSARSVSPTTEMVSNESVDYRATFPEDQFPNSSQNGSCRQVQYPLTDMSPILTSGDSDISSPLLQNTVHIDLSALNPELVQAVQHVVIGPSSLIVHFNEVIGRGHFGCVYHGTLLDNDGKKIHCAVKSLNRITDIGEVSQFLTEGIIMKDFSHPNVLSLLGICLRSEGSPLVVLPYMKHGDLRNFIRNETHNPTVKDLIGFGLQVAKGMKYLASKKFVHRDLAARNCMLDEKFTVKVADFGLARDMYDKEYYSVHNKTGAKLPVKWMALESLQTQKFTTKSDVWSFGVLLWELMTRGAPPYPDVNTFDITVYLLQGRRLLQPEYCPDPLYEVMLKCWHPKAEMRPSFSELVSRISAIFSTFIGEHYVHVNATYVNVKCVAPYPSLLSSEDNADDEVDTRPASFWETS

Row | IC50 [nM] | Compound
1 | < 100 | CC(C)CCn1cnc(-c2cccc(Cc3nn(-c4cnn(C)c4)ccc3=O)c2)n1 [Example 78, 3-{3-[1-(3-methylbutyl)-1H-1,2,4-triazol-3-yl]benzyl}-1-(1-methyl-1H-pyrazol-4-yl)pyridazin-4(1H)-one]
2 | 100 to 1000 | Cn1cc(-n2ccc(=O)c(Cc3cccc(-c4ncc(O)cn4)c3)n2)cn1 [Example 187, 3-[3-(5-Hydroxypyrimidin-2-yl)benzyl]-1-(1-methyl-1H-pyrazol-4-yl)pyridazin-4(1H)-one]
3 | < 100 | Cn1cc(-n2ccc(=O)c(Cc3cccc(-c4ncc(OCCn5cccn5)cn4)c3)n2)cn1 [Example 265, 1-(1-methyl-1H-pyrazol-4-yl)-3-(3-{5-[2-(1H-pyrazol-1-yl)ethoxy]pyrimidin-2-yl}benzyl)pyridazin-4(1H)-one]
4 | < 100 | Cn1cc(-n2ccc(=O)c(Cc3cccc(-c4ncc(CO)cn4)c3)n2)cn1 [Example 190, 3-{3-[5-(Hydroxymethyl)pyrimidin-2-yl]benzyl}-1-(1-methyl-1H-pyrazol-4-yl)pyridazin-4(1H)-one]
5 | < 100 | Cn1cc(-n2ccc(=O)c(Cc3cccc(-c4ncc(OC(F)F)cn4)c3)n2)cn1 [Example 386, 3-{3-[5-(Difluoromethoxy)pyrimidin-2-yl]benzyl}-1-(1-methyl-1H-pyrazol-4-yl)pyridazin-4(1H)-one]
6 | < 100 | Cn1cc(-n2ccc(=O)c(Cc3cccc(-c4ncc(C5CCOC5)cn4)c3)n2)cn1 (racemic) [compound 199, rac-1-(1-methyl-1H-pyrazol-4-yl)-3-{3-[5-(tetrahydrofuran-3-yl)pyrimidin-2-yl]benzyl} pyridazin-4(1H)-one]
7 | 100 to 1000 | CCCn1cnc(-c2cccc(Cc3nn(-c4cccc(C(N)=O)c4)ccc3=O)c2)n1 [Example 735, 3-{4-oxo-3-[3-(1-propyl-1H-1,2,4-triazol-3-yl)benzyl]pyridazin-1(4H)-yl}benzamide]
8 | < 100 | CCCn1cnc(-c2cccc(C(C)c3nn(-c4cnn(C)c4)ccc3=O)c2)n1 (single isomer, unassigned) [Example 685, 1-(1-methyl-1H-pyrazol-4-yl)-3-{(1R or S)-1-[3-(1-propyl-1H-1,2,4-triazol-3-yl)phenyl]ethyl} pyridazin-4(1H)-one]
9 | 100 to 1000 | Cn1cc(-n2ccc(=O)c(Cc3cccc(-c4ncn(CC5(C)COC5)n4)c3)n2)cn1 [Example 713, 3-(3-{1-[(3-methyloxetan-3-yl)methyl]-1H-1,2,4-triazol-3-yl}benzyl)-1-(1-methyl-1H-pyrazol-4-yl)pyridazin 4(1H)-one]
10 | < 100 | C[C@H](Oc1cnc(-c2cccc(Cc3nn(-c4cnn(C)c4)ccc3=O)c2)nc1)[C@@H](C)O (single isomer, unassigned) [Example 377]
11 | 1000 to 3000 | Cc1noc(-c2cccc(Cc3nn(-c4cnn(C)c4)ccc3=O)c2)n1 [Example 41, 3-[3-(3-methyl-1,2,4-oxadiazol-5-yl)benzyl]-1-(1-methyl-1H-pyrazol-4-yl)pyridazin-4(1H)-one]
12 | 100 to 1000 | Cn1cc(-n2ccc(=O)c(Cc3cccc(-c4noc(CC5COC5)n4)c3)n2)cn1 [Example 745, 1-(1-methyl-1H-pyrazol-4-yl)-3-{3-[5-(oxetan-3-ylmethyl)-1,2,4-oxadiazol-3-yl]benzyl}pyridazin-4(1H)-one]
13 | < 100 | COCCCn1cnc(-c2cccc(Cc3nn(-c4cnn(C)c4)ccc3=O)c2)n1 [Example 77, 3-{3-[1-(3-methoxypropyl)-1H-1,2,4-triazol-3-yl]benzyl}-1-(1-methyl-1H-pyrazol-4-yl)pyridazin-4(1H)-one]

The remaining lines, values behind:

Row | Compound | IC50 [nM]
14 | Cn1cc(-n2ccc(=O)c(Cc3cccc(-c4ncc(N5CCCCC5)cn4)c3)n2)cn1 [Example 441, 1-(1-methyl-1H-pyrazol-4-yl)-3-[3-(5-piperidin-1-ylpyrimidin-2-yl)benzyl]pyridazin-4(1H)-one] | < 100
15 | COCCN1CCC(COC(=O)Nc2cccc(Cc3nn(-c4cc(F)cc(F)c4)ccc3=O)c2)C1 (racemic) [Example 594, rac-[1-(2-methoxyethyl)pyrrolidin-3-yl]methyl-(3-{[1-(3,5-difluorophenyl)-4-oxo-1,4-dihydropyridazin-3-yl]methyl}phenyl)carbamate] | < 100
16 | N#Cc1cncc(-n2ccc(=O)c(Cc3cccc(NC(=O)OCC4CCOC4)c3)n2)c1 (racemic) [Example 130, rac-tetrahydrofuran-3-ylmethyl (3-{[1-(5-cyanopyridin-3-yl)-4-oxo-1,4-dihydropyridazin-3-yl]methyl}phenyl)carbamate] | < 100
17 | O=C(Nc1cccc(Cc2nn(-c3cc(F)c(F)c(F)c3)ccc2=O)c1)OCCCN1CCCC1=O [Example 551, 3-(2-oxopyrrolidin-1-yl)propyl (3-{[4-oxo-1-(3,4,5-trifluorophenyl)-1,4-dihydropyridazin-3-yl]methyl}phenyl)carbamate] | < 100
18 | Cn1cc(-n2ccc(=O)c(Cc3cccc(NC(=O)OCC4CCOCC4)c3)n2)cn1 [Example 541, tetrahydro-2H-pyran-4-ylmethyl (3-{[1-(1-methyl-1H-pyrazol-4-yl)-4-oxo-1,4-dihydropyridazin-3-yl]methyl}phenyl)carbamate] | < 100
19 | Cn1cc(-n2ccc(=O)c(Cc3cccc(-c4ncc(CCc5ccccn5)cn4)c3)n2)cn1 [Example 398, 1-(1-methyl-1H-pyrazol-4-yl)-3-(3-{5-[2-(pyridin-2-yl)ethyl]pyrimidin-2-yl}benzyl)pyridazin-4(1H)-one] | < 100
20 | Cn1cc(-n2ccc(=O)c(Cc3cccc(-c4ncc(OC5CCOC5)cn4)c3)n2)cn1 (racemic) [Example 276, rac-1-(1-methyl-1H-pyrazol-4-yl)-3-{3-[5-(tetrahydrofuran-3-yloxy)pyrimidin-2-yl]benzyl}pyridazin-4(1H)-one] | < 100
21 | Cn1cc(-n2ccc(=O)c(Cc3cccc(NC(=O)OCCCCO)c3)n2)cn1 [Example 572, 4-hydroxybutyl (3-{[1-(1-methyl-1H-pyrazol-4-yl)-4-oxo-1,4-dihydropyridazin-3-yl]methyl}phenyl)carbamate] | < 100
22 | Cn1cc(-n2ccc(=O)c(Cc3cccc(-c4ncc(Cc5ccccc5)cn4)c3)n2)cn1 [Example 396] | < 100
23 | CCn1cc(-n2ccc(=O)c(Cc3cccc(-c4ncc(OCC5CCO5)cn4)c3)n2)cn1 (racemic) [Example 308, rac-1-(1-ethyl-1H-pyrazol-4-yl)-3-{3-[5-(oxetan-2-ylmethoxy)pyrimidin-2-yl]benzyl}pyridazin-4(1H)-one] | < 100
24 | Cn1cc(-n2ccc(=O)c(Cc3cccc(-c4ncc(NC(=O)CC5CCOCC5)cn4)c3)n2)cn1 [Example 459, N-[2-(3-{[1-(1-methyl-1H-pyrazol-4-yl)-4-oxo-1,4-dihydro-pyridazin-3-yl]methyl}phenyl)pyrimidin-5-yl]-2-(tetrahydro 2H-pyran-4-yl)acetamide] | < 100
25 | Cn1cc(-n2ccc(=O)c(Cc3cccc(-c4ncc(NC(=O)CN5CCCC5=O)cn4)c3)n2)cn1 [Example 463, N-[2-(3-{[1-(1-methyl-1H-pyrazol-4-yl)-4-oxo-1,4-dihydro-pyridazin-3-yl]methyl}phenyl)pyrimidin-5-yl]-2-(2-oxopyrrolidin-1-yl)acetamide] | < 100
26 | CC1CCN(CCCOC(=O)Nc2cccc(Cc3nn(-c4cc(F)c(F)c(F)c4)ccc3=O)c2)CC1 [Example 553, 3-(4-methylpiperidin-1-yl)propyl (3-{[4-oxo-1-(3,4,5-trifluorophenyl)-1,4-dihydropyridazin-3-yl]methyl}phenyl)carbamate] | < 100
27 | Cn1cc(-n2ccc(=O)c(Cc3cccc(NC(=O)OCCN4CCNCC4)c3)n2)cn1 [Example 625, 2-piperazin-1-ylethyl (3-{[1-(1-methyl-1H-pyrazol-4-yl)-4-oxo-1,4-dihydropyridazin-3-yl]methyl}phenyl)carbmate] | < 100
28 | CC(C)(O)CCOC(=O)Nc1cccc(Cc2nn(-c3cc(F)c(F)c(F)c3)ccc2=O)c1 [Example 514, 3-hydroxy-3-methylbutyl (3-{[4-oxo-1-(3,4,5-trifluorophenyl)-1,4-dihydropyridazin-3-yl]methyl}phenyl)carbamate] | < 100
29 | CCOc1cnc(-c2cccc(C(C)c3nn(-c4cnn(C)c4)ccc3=O)c2)nc1 (single isomer, unassigned) [Example 201, 3-{(1S or R)-1-[3-(5-ethoxypyrimidin-2-yl)phenyl]ethyl}-1-(1-methyl-1H-pyrazol-4-yl)pyridazin-4(1H)-one] | 100 to 1000
30 | COCCOc1cnc(-c2cccc(Cc3nn(-c4cc(F)cc(C#N)c4)ccc3=O)c2)nc1 [Example 134, 3-fluoro-5-[3-{3-[5-(2-methoxyethoxy)pyrimidin-2-yl]benzyl}-4-oxopyridazin-1(4H)-yl]benzonitrile] | < 100
31 | COCCOC(=O)Nc1cccc(Cc2nn(-c3ccc(C#N)cc3)ccc2=O)c1 [Example 508, 2-methoxyethyl (3-{[1-(4-cyanophenyl)-4-oxo-1,4-dihydropyridazin-3-yl]methyl}phenyl)carbamate] | < 100
32 | Cn1cc(-n2ccc(=O)c(Cc3cccc(-c4ncc(C5CCNCC5)cn4)c3)n2)cn1 [Example 200, 1-(1-Methyl-1H-pyrazol-4-yl)-3-{3-[5-(piperidin-4-yl)pyrimidin-2-yl]benzyl}pyridazin-4(1H)-one] | < 100
33 | CC(c1cccc(-c2ncc(C3CC3)cn2)c1)c1nn(-c2cnn(C)c2)ccc1=O (single isomer, unassigned) [Example 405, 3-{(1S or R)-1-[3-(5-cyclopropyl-pyrimidin-2-yl)phenyl]ethyl}-1-(1-methyl-1H-pyrazol-4-yl)pyridazin-4(1H)-one] | < 100
34 | N#Cc1cccc(-n2ccc(=O)c(Cc3cccc(NC(=O)OCC4CCOCC4)c3)n2)c1 [Example 579, tetrahydro-2H-pyran-4-ylmethyl (3-{[1-(3-cyanophenyl)-4-oxo-1,4-dihydropyridazin-3-yl]methyl}phenyl)carbamate] | < 100
